{
  "source": "the OligoGym collection",
  "note": "HELM strings list units from the 5' end as sugar, base in round brackets, then linkage (d deoxyribose, r ribose, m 2'-O-methyl, p phosphodiester). Strings are as the collection lists them; they lack the last nucleoside at the 3' end of the tested compound. [moe] = 2'-O-(2-methoxyethyl) (MOE); [sp] = phosphorothioate linkage; [m5C] = 5-methylcytosine",
  "data": [
    {"molecular_target": "C9ORF72", "assay": "mouse, dose not given", "conditions": "ASO", "units": {"3 h FOB score": "score 0-7"}, "values": [
      {"substance": "RNA1{[moe](A)[sp].[moe](A)[sp].[moe](T)[sp].[moe]([m5C])[sp].[moe](T)[sp].d(T)[sp].d(T)[sp].d(A)[sp].d(T)[sp].d([m5C])[sp].d(A)[sp].d(G)[sp].d(G)[sp].d(T)[sp].d([m5C])[sp].[moe](T)[sp].[moe](T)[sp].[moe](T)[sp].[moe](T)}$$$$ (last 3' nucleoside missing)", "3 h FOB score": 6.5},
      {"substance": "RNA1{[moe](A)[sp].[moe](G)p.[moe](G)p.[moe]([m5C])[sp].d(T)[sp].d(G)[sp].d([m5C])[sp].d(G)[sp].d(G)[sp].d(T)[sp].d(T)[sp].d(G)[sp].[moe](T)p.[moe](T)p.[moe](T)p.[moe]([m5C])[sp].[moe]([m5C])}$$$$ (last 3' nucleoside missing)", "3 h FOB score": 7},
      {"substance": "RNA1{[moe](A)[sp].[moe](G)p.[moe](G)p.[moe]([m5C])p.[moe](T)p.[moe](G)[sp].d([m5C])[sp].d(G)[sp].d(G)[sp].d(T)[sp].d(T)[sp].d(G)[sp].d(T)[sp].d(T)[sp].[moe](T)p.[moe]([m5C])[sp].[moe]([m5C])}$$$$ (last 3' nucleoside missing)", "3 h FOB score": 5.25},
      {"substance": "RNA1{[moe](A)[sp].[moe](G)p.[moe](G)p.[moe]([m5C])p.[moe](T)p.[moe](G)p.d([m5C])[sp].d(G)[sp].d(G)[sp].d(T)[sp].d(T)[sp].d(G)[sp].d(T)[sp].d(T)[sp].d(T)[sp].[moe]([m5C])p.[moe]([m5C])[sp].[moe]([m5C])}$$$$ (last 3' nucleoside missing)", "3 h FOB score": 6},
      {"substance": "RNA1{[moe](A)[sp].[moe](G)p.[moe](G)p.[moe]([m5C])p.[moe](T)p.[moe](G)p.d([m5C])[sp].d(G)[sp].d(G)[sp].d(T)[sp].d(T)[sp].d(G)[sp].d(T)[sp].d(T)[sp].d(T)[sp].d([m5C])[sp].[moe]([m5C])p.[moe]([m5C])[sp].[moe](T)}$$$$ (last 3' nucleoside missing)", "3 h FOB score": 4},
      {"substance": "RNA1{[moe](A)[sp].[moe](G)p.[moe](G)p.[moe]([m5C])p.[moe](T)p.d(G)[sp].d([m5C])[sp].d(G)[sp].d(G)[sp].d(T)[sp].d(T)[sp].d(G)[sp].d(T)[sp].d(T)[sp].[moe](T)p.[moe]([m5C])p.[moe]([m5C])[sp].[moe]([m5C])}$$$$ (last 3' nucleoside missing)", "3 h FOB score": 6.25},
      {"substance": "RNA1{[moe](A)[sp].[moe](G)p.[moe](G)p.[moe]([m5C])p.d(T)[sp].d(G)[sp].d([m5C])[sp].d(G)[sp].d(G)[sp].d(T)[sp].d(T)[sp].d(G)[sp].d(T)[sp].[moe](T)p.[moe](T)p.[moe]([m5C])p.[moe]([m5C])[sp].[moe]([m5C])}$$$$ (last 3' nucleoside missing)", "3 h FOB score": 6.5},
      {"substance": "RNA1{[moe](A)[sp].[moe](G)p.[moe](G)p.[moe]([m5C])p.d(T)[sp].d(G)[sp].d([m5C])[sp].d(G)[sp].d(G)[sp].d(T)[sp].d(T)[sp].d(G)[sp].d(T)[sp].d(T)[sp].[moe](T)p.[moe]([m5C])p.[moe]([m5C])p.[moe]([m5C])[sp].[moe](T)}$$$$ (last 3' nucleoside missing)", "3 h FOB score": 6.25},
      {"substance": "RNA1{[moe](G)[sp].[moe](G)[sp].[moe](G)[sp].[moe](A)[sp].[moe]([m5C])[sp].d(A)[sp].d([m5C])[sp].d(T)[sp].d(A)[sp].d([m5C])[sp].d(A)[sp].d(A)[sp].d(G)[sp].d(G)[sp].d(T)[sp].[moe](A)[sp].[moe](G)[sp].[moe](T)[sp].[moe](A)}$$$$ (last 3' nucleoside missing)", "3 h FOB score": 5.67},
      {"substance": "RNA1{[moe](G)[sp].[moe](G)[sp].[moe](T)[sp].[moe](A)[sp].[moe](A)[sp].d([m5C])[sp].d(T)[sp].d(T)[sp].d([m5C])[sp].d(A)[sp].d(A)[sp].d(A)[sp].d([m5C])[sp].d(T)[sp].d([m5C])[sp].[moe](T)[sp].[moe](T)[sp].[moe](G)[sp].[moe](G)}$$$$ (last 3' nucleoside missing)", "3 h FOB score": 7}
    ]}
  ]
}
